# Data reported in ChEMBL document CHEMBL1126579, “6-Azasteroids: potent dual inhibitors of human type 1 and 2 steroid 5 alpha-reductase” (J Med Chem, 1993).
# Tests used:
# [1] = target: T1, 3-oxo-5-alpha-steroid 4-dehydrogenase 2 (Homo sapiens, UniProt P31213); assay: Inhibition of recombinant human 5-alpha reductase-2 […] after pre-incubation for 10 minutes
# T1 sequence (P31213 whole entry): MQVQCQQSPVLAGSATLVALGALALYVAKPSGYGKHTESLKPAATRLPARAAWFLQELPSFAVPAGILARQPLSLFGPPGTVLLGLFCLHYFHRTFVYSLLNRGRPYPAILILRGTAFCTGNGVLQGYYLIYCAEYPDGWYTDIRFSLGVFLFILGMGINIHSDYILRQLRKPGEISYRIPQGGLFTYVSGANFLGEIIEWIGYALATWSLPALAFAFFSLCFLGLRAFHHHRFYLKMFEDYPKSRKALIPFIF
# [2] = target: T2, 3-oxo-5-alpha-steroid 4-dehydrogenase 1 (Homo sapiens, UniProt P18405); assay: Inhibition of recombinant human 5-alpha reductase-1 […] after pre-incubation for 10 minutes
# T2 sequence (P18405 whole entry): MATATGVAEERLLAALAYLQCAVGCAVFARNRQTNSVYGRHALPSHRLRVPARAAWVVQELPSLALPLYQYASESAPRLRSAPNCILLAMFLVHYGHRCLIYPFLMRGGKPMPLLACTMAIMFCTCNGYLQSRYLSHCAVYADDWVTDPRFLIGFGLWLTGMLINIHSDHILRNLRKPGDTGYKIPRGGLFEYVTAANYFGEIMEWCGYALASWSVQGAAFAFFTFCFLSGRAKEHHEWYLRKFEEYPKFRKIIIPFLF
# Rattus norvegicus = assay: In vivo evaluation in chronic castrated rat to inhibit T-stimulated prostate growth expressed as percentage reduction; format: functional, Prostate gland; design: concentration or dose not given beside the values
# [3] = Bioavailability after oral administration in dog; format: ADME, organism-based, Canis lupus familiaris; conditions: in vivo
# [4] = Half-life in dog; format: ADME, organism-based, Canis lupus familiaris; conditions: in vivo
IC50 [1] [nM],Ki [2] [nM],bioavailability [3] [%],half-life [4] [h],SMILES,Reduction (Rattus norvegicus) [%],IC50 [2] [nM]
30,> 5000,,,CC(C)(C)NC(=O)[C@H]1CC[C@H]2[C@@H]3CC=C4C=C(C(=O)O)CC[C@]4(C)[C@H]3CC[C@]12C [EPRISTERIDE],,
,820,,,CC(C)(C)NC(=O)[C@H]1CCC2C3CNC4=CC(=O)CC[C@]4(C)C3CC[C@@]21C (some centres undefined),,
2.8,720,,,CCN(C)C(=O)[C@H]1CCC2C3CNC4=CC(=O)CC[C@]4(C)C3CC[C@@]21C (some centres undefined),,
,6000,,,CC(C)NC(=O)[C@H]1CCC2C3CNC4=CC(=O)CC[C@]4(C)C3CC[C@@]21C (some centres undefined),,
1.5,750,,,CCN(CC)C(=O)[C@H]1CCC2C3CNC4=CC(=O)CC[C@]4(C)C3CC[C@@]21C (some centres undefined),,
7.1,2200,,,C[C@]12CCC(=O)C=C1NCC1C2CC[C@@]2(C)C1CC[C@@H]2C(=O)N1CCOCC1 (some centres undefined),,
,75,,,C[C@]12CCC(=O)C=C1NCC1C2CC[C@@]2(C)C1CC[C@@H]2C(=O)N(Cc1ccccc1)Cc1ccccc1 (some centres undefined),,
,360,,,C[C@]12CCC(=O)C=C1NCC1C2CC[C@@]2(C)C1CC[C@@H]2C(=O)NCc1ccccc1 (some centres undefined),,
0.09,8.2,,,C[C@]12CCC(=O)C=C1NCC1C2CC[C@@]2(C)C1CC[C@@H]2C(=O)NC(c1ccccc1)(c1ccccc1)c1ccccc1 (some centres undefined),4,
0.4,20,,,C[C@]12CCC(=O)C=C1NCC1C2CC[C@@]2(C)C1CC[C@@H]2C(=O)NC(C1CCCCC1)C1CCCCC1 (some centres undefined),14,
,8600,,,C[C@]12CCC(=O)C=C1NCC1C2CC[C@@]2(C)C1CC[C@@H]2C(=O)N1CCNCC1 (some centres undefined),,
,570,,,C[C@]12CCC(=O)C=C1NCC1C2CC[C@@]2(C)C1CC[C@@H]2C(=O)N1CCSCC1 (some centres undefined),,
0.08,9,,,CC(C)CC(=O)[C@H]1CCC2C3CNC4=CC(=O)CC[C@]4(C)C3CC[C@@]21C (some centres undefined),18,
0.04,6.9,,,C[C@]12CCC(=O)C=C1NCC1C2CC[C@@]2(C)C1CC[C@@H]2C(=O)C1[C@H]2C[C@@H]3C[C@@H](C[C@H]1C3)C2 (some centres undefined),26,
0.09,30,80,,C[C@]12CCC(=O)C=C1NCC1C2CC[C@@]2(C)C1CC[C@@H]2C(=O)NC(c1ccccc1)c1ccccc1 (some centres undefined),43,
,20,,,C[C@]12CCC(=O)C=C1NCC1C2CC[C@@]2(C)C1CC[C@@H]2C(=O)NC(c1ccc(F)cc1)c1ccc(F)cc1 (some centres undefined),43,
,11,,,C[C@]12CCC(=O)C=C1NCC1C2CC[C@@]2(C)C1CC[C@@H]2C(=O)NC12C[C@H]3C[C@@H](C1)C[C@@H](C2)C3 (some centres undefined),18,
0.12,20,,12,C[C@]12CCC(=O)C=C1NCC1C2CC[C@@]2(C)C1CC[C@@H]2C(=O)NC(c1ccc(Cl)cc1)c1ccc(Cl)cc1 (some centres undefined),31,
2.4,2300,,,CON(C)C(=O)[C@H]1CCC2C3CNC4=CC(=O)CC[C@]4(C)C3CC[C@@]21C (some centres undefined),,
,150,,,COC(=O)[C@H]1CCC2C3CNC4=CC(=O)CC[C@]4(C)C3CC[C@@]21C (some centres undefined),,
0.36,190,,,CC(C)N(C(=O)[C@H]1CCC2C3CNC4=CC(=O)CC[C@]4(C)C3CC[C@@]21C)C(C)C (some centres undefined),,
0.23,14,,,C[C@]12CCC(=O)C=C1NCC1C2CC[C@@]2(C)C1CC[C@@H]2C(=O)NN(c1ccccc1)c1ccccc1 (some centres undefined),38,

SMILES,IC50 [1] [nM],Ki [2] [nM],bioavailability [3] [%],half-life [4] [h],Reduction (Rattus norvegicus) [%],IC50 [2] [nM]
CC(C)(C)NC(=O)[C@H]1CC[C@H]2[C@@H]3CC[C@H]4NC(=O)C=C[C@]4(C)[C@H]3CC[C@]12C [FINASTERIDE],0.18,,,,41,150
